Experimental data reported in patent US20090291964A1, “Potentiators of Antibacterial Activity” (priority 2003, published 2009).
Read-outs that look alike come from different tables or passages of the source.

Legend:
Type in all cases: cell-based
S. aureus ATCC 29213 [1] = experiment: MIC by NCCLS microdilution, antibacterial agents with and without EPI; conditions: for MIC of EPI: EPI alone; for Fold-reduction in EtBr MIC / MIC of EtBr with EPI: EPIs used at the MEC, except VX-710 at 100 μg/ml; for MIC: Staphylococcus aureus; for MIC in the presence of 4X MEC of EPI, VX-710: VX-710 100 μg/ml; for MIC in the presence of 4X MEC of EPI, VX-853: VX-853 6.25 μg/ml; for MIC in the presence of 4X MEC of EPI, reserpine: reserpine 25 μg/ml
Experimental: 3% sterile laked horse blood (Quad Five, Ryegate, Mont.) was added to assays for E. faecalis and S. Pneumoniae. A final concentration of 1% DMSO was present in all assays. […]
A-106 and C-9 were tested at their respective MECs in combination with a variety of different classes of antibiotics against S. aureus ATCC 29213 (Table 2).

S. aureus ATCC 29213 [2] = experiment: Minimal effective concentration (MEC) of EPI for EtBr; conditions: S. aureus ATCC 29213; lowest amount of EPI which produces the maximum effect on the MIC of ethidium bromide
Experimental: The MEC was determined as the minimal concentration of EPI that produced the maximal reduction in substrate MIC.
The minimum effective concentration (MEC) for inhibition of EtBr efflux was determined in S. aureus, E. faecalis and S. pneumoniae for A-106 and C-9; reserpine was used as a comparator (Table 1).

E. faecalis ATCC 29212 = experiment: MIC by NCCLS microdilution, EtBr/EPI with and without EPI; conditions: Enterococcus faecalis, ATCC29212, read-out: MIC of EtBr without EPI
Experimental: (§1) 3% sterile laked horse blood (Quad Five, Ryegate, Mont.) was added to assays for E. faecalis and S. Pneumoniae. A final concentration of 1% DMSO was present in all assays.
(§2) EtBr is a general substrate for many different efflux pumps in bacteria. Markham et al., “Multiple Novel Inhibitors of the NorA Multidrug Transporter of Staphylococcus aureus”, Antimicrob. Agents Chemother. 43:2404-2408 (1999). Since EtBr is a non-specific DNA intercalator, the only known mechanism of resistance to EtBr is via efflux. Markham et al., “Multiple Novel Inhibitors of the NorA Multidrug Transporter of Staphylococcus aureus”, Antimicrob. Agents Chemother. 43:2404-2408 (1999).

S. pneumoniae ATCC 10015 = experiment: as above; conditions: Streptococcus pneumoniae, ATCC10015, read-out: MIC of EtBr without EPI
Experimental: as §1, §2

[3] = tested on: S. aureus SA-1199B (NorA overproducing); experiment: MIC of fluoroquinolones with and without EPI; conditions: Staphylococcus aureus
From the text: (§3) A variety of strains may be used in these experiments, including, but not limited to, S. aureus ATCC 29213, E. faecalis ATCC 29212, and S. pneumoniae, S. aureus strains SA-1199, SA-1199B, SA-8325-4, and SA-K2068. S. aureus ATCC 29213, E. faecalis ATCC 29212, and S. pneumoniae ATCC 10015 were obtained from the American Type Culture Collection (Manassas, Va.). S. aureus strains SA-1199 (clinical isolate, susceptible), SA-1199B (SA-1199, NorA overproducing, also has A116E GrlA mutation), SA-8325-4 (NCTC 8325 cured of prophages), SA-K2068 (SA-8325-4, non-NorA multidrug efflux pump overproducing mutation) were obtained from Glenn Kaatz (Kaatz et al., “Identification and characterization of a novel efflux-related multidrug resistance phenotype in Staphylococcus aureus”, J. Antimicrob. Chemother. 50:833-838 (2002); 1993; Kaatz et al., “Phenothiazines and thioxanthenes inhibit multidrug efflux pump activity in Staphylococcus aureus”, Antimicrob. Agents Chemother. 47:719-726, Kaatz et al., “Efflux-mediated fluoroquinolone resistance in Staphylococcus aureus. Antimicrob. Agents Chemother.”, 37:1086-1094, 1993)).
as §1
(§4) Recent more hydrophobic fluoroquinolones such as gatifloxacin and moxifloxacin are less well recognized by NorA; however, recently one other pump in S. aureus has been described which also recognizes hydrophobic fluoroquinolones (Kaatz et al. 2002, supra). To investigate the potential of A-106 and C-9 to block the efflux of several fluoroquinolones in cells with constituitively over-expressed efflux pumps, we used S. aureus strains SA-1199B and K2068 (Table 3). […] Kaatz et al., “Phenothiazines and thioxanthenes inhibit multidrug efflux pump activity in Staphylococcus aureus”, Antimicrob. Agents Chemother. 47:719-726 (2003).

[4] = tested on: S. aureus SA-K2068 (non-NorA multidrug efflux pump overproducing); experiment: microbe, parasite or virus in culture; conditions: Staphylococcus aureus
From the text: as §3, §1, §4

[5] = tested on: S. aureus SA-1199 (clinical isolate, susceptible); experiment: MIC of fluoroquinolones with and without EPI; conditions: Staphylococcus aureus, read-out: MIC of antibacterial agent, EPI none
From the text: as §3, §1

S. aureus SA-8325-4 = experiment: MIC of fluoroquinolones with and without EPI; conditions: Staphylococcus aureus, SA83254, read-out: MIC of antibacterial agent, EPI none
From the text: as §3, §1

[6] = tested on: E. faecalis clinical isolates; experiment: MIC90 studies: fluoroquinolone susceptibility of clinical isolate panel with EPI; conditions: Enterococcus faecalis, read-out: MIC, No EPI
Experimental: (§5) Susceptibility studies with large panels of resistant clinical isolates were performed at Focus Technologies, Herndon, Va. according to NCCLS protocols (National Committee for Clinical Laboratory Standards, supra).
(§6) To be useful in combination therapy, an EPI needs to substantially reduce the MIC of an antibiotic to within the range of clinical susceptibility. Because many different resistance mechanisms are often present in clinical isolates, including the likelihood of multiple target-based mutations in addition to efflux mutations, the barrier to antibiotic efficacy is much greater. […] Oxacillin and vancomycin MICs were also determined to identify which isolates were methicillin-resistant (S. aureus) and vancomycin-resistant (E. faecalis).

[7] = tested on: S. aureus clinical isolates; experiment: as above; conditions: Staphylococcus aureus
Experimental: as §5, §6

[8] = ATCC29213, read-out: MIC of antibacterial agent, EPI none, S. aureus ATCC 29213, no EPI
[9] = ATCC29213, read-out: MIC, No EPI, antibacterial agent alone
[10] = read-out: MIC of antibacterial agent, EPI none
[11] = read-out: MIC of Gatifloxacin without EPI

COc1cc(C(=O)C(=O)N2CCCCC2C(=O)OC(CCCc2ccccc2)CCCc2cccnc2)cc(OC)c1OC (stereo not shown) [VRT-010367]
MIC of EPI (S. aureus ATCC 29213 [1]; S. aureus ATCC 29213): >50 µg/mL
Fold-reduction in EtBr MIC (S. aureus ATCC 29213 [1]; S. aureus ATCC 29213): 2
MIC of EtBr with EPI (S. aureus ATCC 29213 [1]; S. aureus ATCC 29213): 3.1 µg/mL
MEC of EPI (S. aureus ATCC 29213 [2]): 1.6 µg/mL

CC[n+]1c(-c2ccccc2)c2cc(N)ccc2c2ccc(N)cc21 [EtBr, Ethidium bromide]
MIC of EtBr without EPI (S. aureus ATCC 29213 [1]; S. aureus ATCC 29213): 6.2 µg/mL
MIC (S. aureus ATCC 29213 [1]; ATCC29213, read-out: MIC of EtBr without EPI, S. aureus ATCC 29213): 6.3 µg/mL
MIC (S. aureus ATCC 29213 [1]; [8]): 6.2 µg/mL
MIC (S. aureus ATCC 29213 [1]; [9]): 6.2 µg/mL
MIC in the presence of 4X MEC of EPI, VX-710 (S. aureus ATCC 29213 [1]): 0.2 µg/mL
MIC in the presence of 4X MEC of EPI, VX-853 (S. aureus ATCC 29213 [1]): 1.6 µg/mL
MIC in the presence of 4X MEC of EPI, reserpine (S. aureus ATCC 29213 [1]): 1.6 µg/mL
MIC (E. faecalis ATCC 29212): 6.3 µg/mL
MIC (S. pneumoniae ATCC 10015): 2 µg/mL
MIC [3, 10]: 25 µg/mL
MIC [4, 10]: 12.5 µg/mL
MIC [5]: 6.2 µg/mL
MIC (S. aureus SA-8325-4): 3.1 µg/mL

CCn1cc(C(=O)O)c(=O)c2cc(F)c(N3CCNCC3)cc21 [norfloxacin, reference compound]
MIC (S. aureus ATCC 29213 [1]; ATCC29213, antibacterial agent alone, read-out: MIC, No EPI): 1 µg/mL
MIC (S. aureus ATCC 29213 [1]; [8]): 0.5 µg/mL
MIC in the presence of 4X MEC of EPI, VX-710 (S. aureus ATCC 29213 [1]): 0.25 µg/mL
MIC in the presence of 4X MEC of EPI, VX-853 (S. aureus ATCC 29213 [1]): 0.5 µg/mL
MIC in the presence of 4X MEC of EPI, reserpine (S. aureus ATCC 29213 [1]): 0.5 µg/mL
MIC [4, 10]: 8 µg/mL
MIC [5]: 0.5 µg/mL
MIC (S. aureus SA-8325-4): 1 µg/mL
MIC ([6]; E. faecalis clinical isolate 1): 4 µg/mL
MIC ([6]; E. faecalis clinical isolate 2): 4 µg/mL
MIC ([6]; E. faecalis clinical isolate 3): 128 µg/mL
MIC ([6]; E. faecalis clinical isolate 4): 128 µg/mL
MIC ([6]; E. faecalis clinical isolate 5): 64 µg/mL
MIC ([6]; E. faecalis clinical isolate 6): 2 µg/mL
MIC ([6]; E. faecalis clinical isolate 7): 2 µg/mL
MIC ([6]; E. faecalis clinical isolate 8): 128 µg/mL
MIC ([6]; E. faecalis clinical isolate 9): 4 µg/mL
MIC ([6]; E. faecalis clinical isolate 10): 64 µg/mL
MIC ([6]; E. faecalis clinical isolate 11): 128 µg/mL
MIC ([6]; E. faecalis clinical isolate 12): 2 µg/mL
MIC ([6]; E. faecalis clinical isolate 13): 2 µg/mL
MIC ([6]; E. faecalis clinical isolate 14): 4 µg/mL
MIC ([6]; E. faecalis clinical isolate 15): 4 µg/mL
MIC ([6]; E. faecalis clinical isolate 16): 4 µg/mL
MIC ([6]; E. faecalis clinical isolate 17): 4 µg/mL
MIC ([6]; E. faecalis clinical isolate 18): 128 µg/mL
MIC ([6]; E. faecalis clinical isolate 19): 4 µg/mL
MIC ([6]; E. faecalis clinical isolate 20): 4 µg/mL
MIC ([6]; E. faecalis clinical isolate 21): 2 µg/mL
MIC ([6]; E. faecalis clinical isolate 22): 128 µg/mL
MIC ([6]; E. faecalis clinical isolate 23): 64 µg/mL
MIC ([6]; E. faecalis clinical isolate 24): > 256 µg/mL
MIC ([6]; E. faecalis clinical isolate 25): 128 µg/mL
MIC ([6]; E. faecalis clinical isolate 26): > 256 µg/mL
MIC ([7]; S. aureus clinical isolate 1): 16 µg/mL
MIC ([7]; S. aureus clinical isolate 2): 1 µg/mL
MIC ([7]; S. aureus clinical isolate 3): 1 µg/mL
MIC ([7]; S. aureus clinical isolate 4): 256 µg/mL
MIC ([7]; S. aureus clinical isolate 5): 1 µg/mL
MIC ([7]; S. aureus clinical isolate 6): 32 µg/mL
MIC ([7]; S. aureus clinical isolate 7): 2 µg/mL
MIC ([7]; S. aureus clinical isolate 8): 4 µg/mL
MIC ([7]; S. aureus clinical isolate 9): 1 µg/mL
MIC ([7]; S. aureus clinical isolate 10): 64 µg/mL
MIC ([7]; S. aureus clinical isolate 11): 64 µg/mL
MIC ([7]; S. aureus clinical isolate 12): 1 µg/mL
MIC ([7]; S. aureus clinical isolate 13): 256 µg/mL
MIC ([7]; S. aureus clinical isolate 14): 256 µg/mL
MIC ([7]; S. aureus clinical isolate 15): 256 µg/mL

COc1c(N2CCNC(C)C2)c(F)cc2c(=O)c(C(=O)O)cn(C3CC3)c12 (stereo not shown) [gatifloxacin, reference compound]
MIC (S. aureus ATCC 29213 [1]; ATCC29213, read-out: MIC of Gatifloxacin without EPI, S. aureus ATCC 29213 (Table 4)): 0.125 µg/mL
MIC (S. aureus ATCC 29213 [1]; [8]): 0.063 µg/mL
MIC (S. aureus ATCC 29213 [1]; [9]): 0.125 µg/mL
MIC in the presence of 4X MEC of EPI, VX-710 (S. aureus ATCC 29213 [1]): 0.125 µg/mL
MIC in the presence of 4X MEC of EPI, VX-853 (S. aureus ATCC 29213 [1]): 0.125 µg/mL
MIC in the presence of 4X MEC of EPI, reserpine (S. aureus ATCC 29213 [1]): 0.125 µg/mL
MIC [3, 11]: 0.5 µg/mL
MIC [3, 10]: 0.5 µg/mL
MIC [4, 11]: 1 µg/mL
MIC [4, 10]: 1 µg/mL
MIC [5]: 0.063 µg/mL
MIC (S. aureus SA-8325-4): 0.125 µg/mL

COc1cc(C(=O)C(=O)N(C)C(Cc2ccccc2)C(=O)N(Cc2ccccc2)C(CCc2ccncc2)CCc2ccncc2)cc(OC)c1OC (stereo not shown) [VRT-013661]
MIC of EPI (S. aureus ATCC 29213 [1]; S. aureus ATCC 29213): >100 µg/mL
Fold-reduction in EtBr MIC (S. aureus ATCC 29213 [1]; S. aureus ATCC 29213): 4
MIC of EtBr with EPI (S. aureus ATCC 29213 [1]; S. aureus ATCC 29213): 1.6 µg/mL
MEC of EPI (S. aureus ATCC 29213 [2]): 3.1 µg/mL
